Measurements reported in publication PMC12522199 (RSC Advances, 2025).

Molecular target: HamA (Burkholderia cenocepacia, UniProt A0A144VC93)
Assay: microscale thermophoresis
Assay type: binding

O=C(O)CCC(=O)C(=O)O [2-oxoglutarate]
Kd: 208 ± 1.42 µM
